Where two headings read alike, the source gives them in different places. Where a SMILES comes first, the peptide text is derived from it. The star is where a group is joined. Myristoyl = CCCCCCCCCCCCCC(=O)*

The subject of series [1] is primary bovine chondrocytes. The series is described as follows: Trypan blue staining of chondrocytes and lactate assays on culture media (cytotoxicity). Format: cell-based. As to the method:
Trypan blue staining of the chondrocytes and lactate assays on the culture media were performed to rule out cytotoxicity as a possible explanation for the results. […] In addition, control peptides were synthesized and tested in the same assay system to address the possibility that nonspecific effects may be causing the observed results.

The test system of series [2] is primary bovine chondrocytes. The series is described as follows: Proteoglycan degradation in primary bovine chondrocyte pellet culture (release into media / retention in cell pellet, DMMB). Type of series: cell-based. On the procedure:
Full-thickness bovine articular cartilage slices were dissected under aseptic conditions, rinsed four times in PBS, and subjected to pronase and collagenase digestion (1 mg/ml pronase (Calbiochem, San Diego, Calif.) for 30 minutes and 1 mg/ml Collagenase P (Roche Diagnostics Corporation, Indianapolis, Ind.) overnight at 37° C. in DME without serum) to isolate chondrocytes embedded in the cartilage extracellular matrix. The digest was filtered through a 70 micron Falcon™ cell strainer (BD Biosciences, San Jose, Calif.) and washed twice in DME containing 10% FBS. Typically 2-4×10^8 cells were obtained from a calf metacarpophalangeal joint surface. Cells were plated in monolayer in six-well plates at density of 2×10^6 cells/well. For pellet culture, cells were resuspended in growth media [HL-1 media (Cambrex Corporation, East Rutherford, N.J.), penicillin+streptomycin, glutamine, 50 μg/ml ascorbate, and 10% FBS] at 1×10^6 cells/ml, and 1 ml aliquots of cells were transferred to 15 ml sterile Falcon centrifuge tubes. The cells were centrifuged at 200×g for 5 min at 4° C. and the resulting cell pellets were cultured as described previously (Xu et al. (1996) Endocrinology 137:3557-65). Cell media were collected and stored for collagen and proteoglycan assays, and cells were refed with fresh media (3 ml/well, 1 ml/tube) every 3-4 days. Pellet cultures were maintained for 3 weeks, at which time the pellets were harvested and either digested with 0.5 ml of 300 μg/ml papain at 65° C. for 3-6 hrs for dimethylmethylene blue (DMMB) dye assays or prepared for histology.
Cells were incubated with the inhibitor for 3 hrs prior to the addition of either TNF or IL-1. […] SN50M, which served as a negative control, is the same peptide with amino acid changes to abolish NF-κB-blocking activity. SN50 and SN50M are available from, e.g., Biomol Research Laboratories, Inc. (Plymouth Meeting, Pa.).
To determine whether ζPKC inhibitors can inhibit TNF-mediated proteoglycan degradation, primary bovine chondrocytes were cultured with various concentrations of TNF for 5 days with or without (1) the myristoylated ζPKC peptide pseudosubstrate [herein termed “2089”; synthesized in-house; equivalent to SEQ ID NO:6; available from, e.g., BioSource International, Inc., USA (Camarillo, Calif.)], or (2) the small molecule inhibitor Ro-31-8220 (Sigma-RBI, Natick, Mass.). The inhibitors were added 3 hrs prior to addition of TNF.
To determine whether myristoylated ζPKC peptide pseudosubstrate 2089 can inhibit cytokine-mediated proteoglycan degradation in a dose-dependent manner, primary bovine chondrocytes were cultured with either 10 ng/ml TNF or 1 ng/ml IL-1 for 4 days after addition of various concentrations of 2089. […]

For another series, the target named is T1, ζPKC (Homo sapiens, UniProt Q05513).
T1 sequence (Q05513 1-592): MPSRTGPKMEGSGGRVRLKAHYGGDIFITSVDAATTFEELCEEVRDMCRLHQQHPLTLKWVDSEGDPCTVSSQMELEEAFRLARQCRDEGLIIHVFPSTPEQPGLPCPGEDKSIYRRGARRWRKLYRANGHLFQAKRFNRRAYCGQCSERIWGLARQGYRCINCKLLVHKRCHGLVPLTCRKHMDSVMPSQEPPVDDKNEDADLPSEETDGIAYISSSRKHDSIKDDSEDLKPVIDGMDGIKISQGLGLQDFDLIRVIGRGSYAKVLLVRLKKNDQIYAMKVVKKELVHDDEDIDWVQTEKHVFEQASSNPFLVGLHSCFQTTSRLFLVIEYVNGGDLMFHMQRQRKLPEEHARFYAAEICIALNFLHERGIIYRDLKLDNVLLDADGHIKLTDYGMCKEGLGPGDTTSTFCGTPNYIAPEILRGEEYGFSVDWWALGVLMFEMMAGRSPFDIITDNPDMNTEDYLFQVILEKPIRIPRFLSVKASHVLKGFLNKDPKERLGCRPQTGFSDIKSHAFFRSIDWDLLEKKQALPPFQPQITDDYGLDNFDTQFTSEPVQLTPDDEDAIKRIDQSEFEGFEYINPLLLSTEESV
Conditions: literature (Toullec et al. 1991); cited from earlier work.

The next series relates to NF-κB. The series is described as follows: NF-κB luciferase reporter assay in immortalized human chondrocyte cell line C28/I2. To be noted: BIS 20 μM; TNFα 1 or 10 ng/ml; C28/I2 cells; inhibitor added 2 hrs before TNF; FIG. 8. Type of series: cell-based. On the procedure:
Activation of NF-κB was measured in an immortalized human chondrocyte cell line (C28/I2; see, e.g., Finger et al. (2003) Arthritis Rheum. 48:3395-403; Goldring (1994) J. Clin. Invest. 94:2307-16) into which a luciferase reporter gene under the control of an NF-κB response element was introduced. The cells were cultured in DMEM/Ham's F12 supplemented with 10% FBS; the cells were split into 96 wells (1×10^5 cells/well) and infected with adenovirus expressing NF-κB luciferase construct (100 MOI) 24 hrs prior to assay. The chondrocytes were incubated with inhibitors in serum-free media 2 hrs prior to the addition of TNF. […] BIS (20 μM), a pan-PKC inhibitor, was added to some cultures, and CC (8 μM), a competitive inhibitor of the phorbol ester binding site in some forms of PKC (but not the a typical PKCs, e.g., ζPKC), was added to other cultures.
(In general: Reporter assays use an easily measured gene product as a stand-in for the process of interest.)

On to `Cn1cc(C2=C(c3cn(CCCSC(=N)N)c4ccccc34)C(=O)NC2=O)c2ccccc21` [Ro-31-8220], for which the “cytotoxicity (trypan blue staining, lactate assays)” value in series [1] (at the doses used in the proteoglycan degradation experiments) was “do not cause appreciable cytotoxicity”. Further, the TNF-mediated proteoglycan degradation entry in series [2] (5 μM Ro-31-8220, 5 days, FIG. 3) is on record as “relatively ineffective”; in series [2] (10 μM Ro-31-8220, TNF 10 and 100 ng/ml, 5 days, FIG. 3), “significantly inhibited”. The “proteoglycan degradation in the absence of TNF” value in series [2] (no TNF, 5 days, FIG. 3) was “inhibited proteoglycan degradation”.
Take `CCCCCCCCCCCCCC(=O)N[C@@H](CO)C(=O)N[C@H](C(=O)N[C@@H](Cc1ccc(O)cc1)C(=O)N[C@@H](CCCNC(=N)N)C(=O)N[C@@H](CCCNC(=N)N)C(=O)NCC(=O)N[C@@H](C)C(=O)N[C@@H](CCCNC(=N)N)C(=O)N[C@@H](CCCNC(=N)N)C(=O)N[C@@H](Cc1c[nH]c2ccccc12)C(=O)N[C@@H](CCCNC(=N)N)C(=O)N[C@@H](CCCCN)C(=O)N[C@@H](CC(C)C)C(=O)O)[C@@H](C)CC` [compound 2089] (Myristoyl-SIYRRGARRWRKL-OH): the “cytotoxicity (trypan blue staining, lactate assays)” value in series [1] is “do not cause appreciable cytotoxicity”.
For the compound bisindolylmaleimide, the “inhibition of PKC isoforms including ζPKC” value on ζPKC is on record as “block the activity of all isoforms of PKC”. Besides, the “TNFα-mediated activation of NF-κB (relative luciferase activity)” value with NF-κB was “blocked”. The “TNFα-mediated release of proteoglycan into the media” value in series [2] (BIS at 20-40 μM, TNFα 100 ng/ml, FIG. 7) is “blocked”.

The record behind these values is US7638482B2, “Protein kinase C zeta as a drug target for arthritis and other inflammatory diseases” (Wyeth, priority 2003, dated 2009).
